Literature values, collected in patent publication US10865157B2, “Methods and compositions for increasing the yield of, and beneficial chemical composition of, certain plants” (B.K. Consultants, Inc., priority 2014, dated 2020).

Settings: similarly sized particles

## CC(=O)Oc1ccccc1C(=O)O [non-crystalline aspirin, aspirin]
  solubility in water relative to the crystal form: 2 to 8 times
